The source made the active and inactive calls. The rule behind the calls is not given here.
Columns and labels:
[1] = system: VA10; assay: Induction of CAMP mRNA expression in human VA10 cells at 4 mM after 24 hrs by RT-PCR analysis; format: functional, cell-based
[2] = system: VA10; assay: Induction of DEFB4 mRNA expression in human VA10 cells at 4 mM after 24 hrs by RT-PCR analysis; format: functional, cell-based
[3] = system: VA10; assay: Induction of LL-37 protein expression in human VA10 cells at 20 nM after 24 hrs by Western blotting; format: functional, cell-based
[4] = system: VA10; assay: Induction of CAMP mRNA expression in human VA10 cells after 48 hrs by RT-PCR analysis; format: functional, cell-based
[5] = system: VA10; assay: Induction of CAMP mRNA expression in human VA10 cells at 4 mM by RT-PCR analysis; format: functional, cell-based; conditions: TDE = time-dependent effect
[6] = system: U-937; assay: Induction of DEFB1 mRNA expression in human U937 cells at 4 mM after 24 to 48 hrs by RT-PCR analysis; format: functional, cell-based
[7] = system: VA10; assay: Induction of DEFB2 mRNA expression in human VA10 cells at 4 mM after 24 hrs by RT-PCR analysis; format: functional, cell-based
[8] = system: A498; assay: Induction of CAMP mRNA expression in human A498 cells at 4 mM after 8 to 48 hrs by RT-PCR analysis; format: functional, cell-based
[9] = system: VA10; assay: Induction of DEFB3 mRNA expression in human VA10 cells at 4 mM after 24 hrs by RT-PCR analysis; format: functional, cell-based
[10] = system: VA10; assay: Induction of LL-37 protein expression in human VA10 cells at 4 mM after 24 hrs by Western blotting; format: functional, cell-based
[11] = system: HT-29; assay: Induction of CAMP mRNA expression in human HT-29 cells at 4 mM after 8 to 48 hrs by RT-PCR analysis; format: functional, cell-based
[12] = system: VA10; assay: Induction of CAMP mRNA expression in human VA10 cells at 4 mM after 24 hrs by RT-PCR analysis in presence of protein synthesis inhibitor CHX treated 1 hr before compound challenge; format: functional, cell-based
[13] = Induction of CAMP mRNA expression in human VA10 cells at 4 mM after 24 hrs by RT-PCR analysis in presence of 1,25(OH)2D3 relative to control; format: functional
[14] = system: VA10; assay: Induction of CAMP mRNA expression in human VA10 cells at 4 mM after 24 hrs by RT-PCR analysis in presence of ERK1/2 inhibitor U0126 treated 1 hr before compound challenge; format: functional, cell-based
[15] = system: VA10; assay: Induction of DEFB1 mRNA expression in human VA10 cells at 4 mM after 24 hrs by RT-PCR analysis; format: functional, cell-based
[16] = system: VA10; assay: Induction of CAMP mRNA expression in human VA10 cells at 4 mM after 24 hrs by RT-PCR analysis in presence of p38 kinase inhibitor SB203580 treated 1 hr before compound challenge; format: functional, cell-based
[17] = system: U-937; assay: Induction of CAMP mRNA expression in human U937 cells at 4 mM after 8 to 48 hrs by RT-PCR analysis; format: functional, cell-based
[18] = system: VA10; assay: Induction of CAMP mRNA expression in human VA10 cells at 4 mM after 24 hrs by RT-PCR analysis in presence of JNK inhibitor SP600125 treated 1 hr before compound challenge; format: functional, cell-based

CC(Cc1ccccc1)C(=O)O (stereo not given)
Activity [1]: Active

CCC(C)(C)C(=O)O
Activity [1]: inactive

O=C([O-])CCCc1ccccc1.[Na+] [SODIUM PHENYLBUTYRATE]
Activity [2]: inactive
Activity [3]: Active
Activity [4]: Dose-dependent effect
Activity [5]: tde
Activity [6]: inactive
Activity [7]: inactive
Activity [8]: Active
Activity [9]: inactive
Activity [10]: Active
Activity [1]: Active
Activity [11]: Active
Activity [12]: inactive
fold change (FC) [13]: 100
Activity [14]: inactive
Activity [15]: Active
Activity [16]: inactive
Activity [17]: Active
Activity [18]: inactive
